Measurements: US20240139260A1, “MICROBIAL STRAIN COMPOSITIONS” (MICROBIAL DISCOVERY GROUP, LLC, priority 2022, published 2024)
Converted amounts (≈) assume the structure as drawn. Like-named read-outs stand apart in the source and are kept apart here.

Assays:
[1] = system: Bacillus strain BC1 (NRRL No. B-67744); assay: Antibiotic resistance, phenotypic MICs of medical antibiotics; format: cell-based, Bacillus coagulans; details: for MIC: Bacillus
[2] = system: Bacillus strain (NRRL No. B-68053); assay: Antibiotic resistance, Minimum Inhibitory Concentrations (MICs) Against Medical Antibiotics; format: cell-based, Bacillus subtilis
Excerpt: (§1) The inventors have assessed resistance phenotypically. A bacterial strain is defined by EFSA as susceptible when its growth is inhibited at concentration of a specific antibiotic that is equal to or lower than the established cut-off value for that particular species. A bacterial strain is defined as resistant when it is able to grow at a concentration of a specific antibiotic that is higher than the established cut-off. We utilized both the EFSA and CLSI guidelines for determining susceptibility and resistance interpreted through their defined cut-off values.

[3] = system: Bacillus strain (NRRL No. B-68054); assay: as above; format: cell-based, Bacillus subtilis
Excerpt: as §1, with “The inventors” for “We”

[4] = NRRLB67744, MIC of the antibiotic against the strain, triplicate, read-out: NRRL No. B-67744 ug/ml (triplicate)
[5] = Bacillus, NRRLB68053; read-out: NRRL No. B-68053 ug/mL (triplicate), Minimum Inhibitory Concentration
[6] = Bacillus, NRRLB68054; read-out: NRRL No. B-68054 ug/mL (triplicate), Minimum Inhibitory Concentration
[7] = Bacillus, NRRLB68053, read-out: NRRL No. B-68053 ug/mL (triplicate), Minimum Inhibitory Concentration
[8] = Bacillus, NRRLB68054, read-out: NRRL No. B-68054 ug/mL (triplicate), Minimum Inhibitory Concentration

Compound | MIC [1, 4] | MIC [2, 5] | MIC [3, 6] | also measured
O=C(N[C@H](CO)[C@H](O)c1ccc([N+](=O)[O-])cc1)C(Cl)Cl [Chloramphenicol] | 0.016 µg/mL | 3 µg/mL (≈ 9.28 µM) | 1.5 µg/mL (≈ 4.64 µM) | –
CN(C)c1cc(NC(=O)CNC(C)(C)C)c(O)c2c1C[C@H]1C[C@H]3[C@H](N(C)C)C(O)=C(C(N)=O)C(=O)[C@@]3(O)C(O)=C1C2=O [Tigecycline] | – | – | – | MIC ([1]; NRRLB67744, read-out: NRRL No. B-67744 ug/ml (triplicate)): 0.064 µg/mL (≈ 0.109 µM); MIC [2, 7]: 0.094 µg/mL (≈ 0.161 µM); MIC [3, 8]: 0.064 µg/mL (≈ 0.109 µM)
CO[C@H]1/C=C/O[C@@]2(C)Oc3c(C)c(O)c4c(O)c(c(/C=N/N5CCN(C)CC5)c(O)c4c3C2=O)NC(=O)/C(C)=C\C=C\[C@H](C)[C@H](O)[C@@H](C)[C@@H](O)[C@@H](C)[C@H](OC(C)=O)[C@@H]1C [Rifampin] | 0.25 µg/mL | 0.25 µg/mL (≈ 0.304 µM) | 0.5 µg/mL (≈ 0.608 µM) | –
CCC[C@@H]1C[C@@H](C(=O)N[C@@H]([C@H]2O[C@H](SC)[C@H](O)[C@@H](O)[C@H]2O)[C@H](C)Cl)N(C)C1 [Clindamycin] | 0.016 µg/mL | 1 µg/mL (≈ 2.35 µM) | 0.5 µg/mL (≈ 1.18 µM) | –
NC[C@H]1O[C@H](O[C@H]2[C@H](O)[C@@H](O[C@H]3O[C@H](CO)[C@@H](O)[C@H](N)[C@H]3O)[C@H](N)C[C@@H]2N)[C@H](O)[C@@H](O)[C@@H]1O [Kanamycin] | 0.016 µg/mL | 0.75 µg/mL (≈ 1.55 µM) | 0.75 µg/mL (≈ 1.55 µM) | –
CC(=O)NC[C@H]1CN(c2ccc(N3CCOCC3)c(F)c2)C(=O)O1 [Linezolid] | 0.75 µg/mL | 1 µg/mL (≈ 2.96 µM) | 0.25 µg/mL (≈ 0.741 µM) | –
CC[C@H]1OC(=O)[C@H](C)[C@@H](O[C@H]2C[C@@](C)(OC)[C@@H](O)[C@H](C)O2)[C@H](C)[C@@H](O[C@@H]2O[C@H](C)C[C@H](N(C)C)[C@H]2O)[C@](C)(O)C[C@@H](C)C(=O)[C@H](C)[C@@H](O)[C@]1(C)O [Erythromycin] | 0.125 µg/mL | 0.064 µg/mL (≈ 0.0872 µM) | 0.047 µg/mL (≈ 0.064 µM) | –
Gentamicin | – | – | – | NRRL No. B-67744 ug/ml (triplicate) ([1]; MIC of the antibiotic against the strain, triplicate): 0.023 µg/mL; NRRL No. B-68053 ug/mL (triplicate), Minimum Inhibitory Concentration ([2]; triplicate): 0.094 µg/mL; NRRL No. B-68054 ug/mL (triplicate), Minimum Inhibitory Concentration ([3]; triplicate): 0.125 µg/mL
CN(C)[C@@H]1C(O)=C(C(N)=O)C(=O)[C@@]2(O)C(O)=C3C(=O)c4c(O)cccc4[C@@](C)(O)[C@H]3C[C@@H]12 [Tetracycline] | 1.25 µg/mL | 12 µg/mL (≈ 27 µM) | 6 µg/mL (≈ 13.5 µM) | –
[H]/N=C(/N)N[C@H]1[C@H](O)[C@@H](O)[C@H](O[C@@H]2O[C@@H](C)[C@](O)(C=O)[C@H]2O[C@@H]2O[C@@H](CO)[C@H](O)[C@@H](O)[C@@H]2NC)[C@@H](N/C(N)=N\[H])[C@@H]1O [Streptomycin] | 1.5 µg/mL | 8 µg/mL (≈ 13.8 µM) | 4 µg/mL (≈ 6.88 µM) | –
O=C(O)c1cn(C2CC2)c2cc(N3CCNCC3)c(F)cc2c1=O [Ciprofloxacin] | – | 0.94 µg/mL (≈ 2.84 µM) | – | –
CN[C@H](CC(C)C)C(=O)N[C@H]1C(=O)N[C@@H](CC(N)=O)C(=O)N[C@H]2C(=O)N[C@H]3C(=O)N[C@H](C(=O)N[C@H](C(=O)O)c4cc(O)cc(O)c4-c4cc3ccc4O)[C@H](O)c3ccc(c(Cl)c3)Oc3cc2cc(c3O[C@@H]2O[C@H](CO)[C@@H](O)[C@H](O)[C@H]2O[C@H]2C[C@](C)(N)[C@H](O)[C@H](C)O2)Oc2ccc(cc2Cl)[C@H]1O [Vancomycin] | 0.38 µg/mL | – | – | MIC [2, 7]: 0.5 µg/mL (≈ 0.345 µM); MIC [3, 8]: 0.75 µg/mL (≈ 0.518 µM)
